As a reminder, the IC50 is the concentration needed to halve the response being measured. As usually defined, the inhibition is the change of the read-out against control, counted positive when it falls. Low readings indicate a response near the control, high ones a response far below the control.

For one test, the target named is Acetylcholinesterase (Homo sapiens, UniProt P22303). The test can be described thus: Inhibition of human erythrocyte acetylcholinesterase using acetylthiocholine as substrate by Ellman's method. A general note: In Ellman's method for cholinesterases, released thiocholine reacts with DTNB.
Acetylcholinesterase, sequence (P22303 whole entry): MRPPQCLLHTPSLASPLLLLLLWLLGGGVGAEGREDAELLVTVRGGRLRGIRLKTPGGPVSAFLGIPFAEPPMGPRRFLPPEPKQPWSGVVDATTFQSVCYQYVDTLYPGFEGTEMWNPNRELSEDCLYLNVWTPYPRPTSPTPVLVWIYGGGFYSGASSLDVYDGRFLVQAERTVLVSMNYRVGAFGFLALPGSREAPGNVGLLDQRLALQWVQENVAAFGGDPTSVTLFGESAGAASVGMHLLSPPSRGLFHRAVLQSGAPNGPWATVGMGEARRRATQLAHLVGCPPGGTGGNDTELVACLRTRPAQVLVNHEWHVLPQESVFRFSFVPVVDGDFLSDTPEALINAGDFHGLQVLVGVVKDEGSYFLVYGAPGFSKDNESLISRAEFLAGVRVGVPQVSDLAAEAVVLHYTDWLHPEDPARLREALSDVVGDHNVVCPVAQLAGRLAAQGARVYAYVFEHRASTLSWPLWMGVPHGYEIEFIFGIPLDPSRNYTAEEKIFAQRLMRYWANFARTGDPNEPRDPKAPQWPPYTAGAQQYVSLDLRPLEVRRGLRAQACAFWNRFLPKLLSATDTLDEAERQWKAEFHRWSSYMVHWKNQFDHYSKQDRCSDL
Test [1] concerns the target Amyloid-beta precursor protein (Homo sapiens) (UniProt P05067). As to the kind of experiment: Inhibition of self-mediated Amyloid beta (1 to 42) (unknown origin) aggregation at 20 uM measured every 5 mins by ThT fluorescence based assay relative to control.

Amyloid-beta precursor protein (Homo sapiens), sequence (P05067 whole entry): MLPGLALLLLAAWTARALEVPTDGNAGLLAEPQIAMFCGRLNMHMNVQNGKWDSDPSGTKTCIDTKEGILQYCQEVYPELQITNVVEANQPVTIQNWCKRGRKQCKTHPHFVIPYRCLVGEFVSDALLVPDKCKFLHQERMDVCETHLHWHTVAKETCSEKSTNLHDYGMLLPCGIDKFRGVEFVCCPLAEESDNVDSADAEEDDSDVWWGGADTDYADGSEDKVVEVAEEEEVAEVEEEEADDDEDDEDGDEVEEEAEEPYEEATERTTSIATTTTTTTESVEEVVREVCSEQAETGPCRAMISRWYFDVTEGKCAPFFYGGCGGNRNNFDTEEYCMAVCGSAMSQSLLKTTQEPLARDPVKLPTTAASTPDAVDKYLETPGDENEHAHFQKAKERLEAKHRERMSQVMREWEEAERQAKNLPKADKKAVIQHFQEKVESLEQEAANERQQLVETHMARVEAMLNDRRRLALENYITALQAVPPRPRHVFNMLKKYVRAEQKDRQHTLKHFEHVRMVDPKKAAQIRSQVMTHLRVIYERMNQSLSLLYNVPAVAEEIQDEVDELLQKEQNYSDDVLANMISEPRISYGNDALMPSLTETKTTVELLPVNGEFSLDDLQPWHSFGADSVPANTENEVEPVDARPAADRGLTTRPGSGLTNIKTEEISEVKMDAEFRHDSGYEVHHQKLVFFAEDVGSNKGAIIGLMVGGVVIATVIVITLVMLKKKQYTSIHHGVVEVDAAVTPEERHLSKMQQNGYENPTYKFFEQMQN

Turning to `COc1ccc([C@H]2O[C@@H](O)[C@H]3[C@@H]2C(=O)O[C@@H]3c2cc(OC)c3c(c2)OCO3)cc1OC`, 300 nM corresponded to half-maximal inhibition on Acetylcholinesterase (IC50).
`COc1cc([C@H](O)[C@H](C)Oc2ccc(CCCO)cc2O)ccc1O`: the inhibition in test [1] was found to be 81%.

The values above are taken from ChEMBL document CHEMBL6096730, “Unlocking the Therapeutic Potential of Natural Products for Alzheimer's Disease” (J Med Chem, 2025).
